The text below walks through data of US20220380375A1, “SUBSTITUTED AROMATIC FUSED RING DERIVATIVE AND COMPOSITION COMPRISING SAME, AND USE THEREOF” (Shenzhen TargetRx, Inc., priority 2019, published 2022).

Holding throughout (assay type): cell-based
The subject of assay [1] is Ba/F3 FLT3-ITD cells. As to the kind of experiment: Cytotoxicity assay (CellTiter-Glo), Ba/F3 FLT3-ITD. The conditions noted are these: ratio of Ba/F3 parental IC50 to Ba/F3 FLT3-ITD IC50. The method, then: (§1) Inhibitory effects of example compounds on the activity of Ba/F3 parental generation, Ba/F3 KIF5B-RET, Ba/F3 KIF5B-RET^V804M, Ba/F3 KIF5B-RET^V804L, Ba/F3 KIF5B-RET^G810R, Ba/F3 FLT3-ITD, Ba/F3 FLT3-ITD^D835Y, Ba/F3 FLT3-ITD^F691L cells were determined.
(§2) Materials and reagents: fetal bovine serum FBS (GIBCO, Cat #10099141), CellTiter-Glo® Luminescent Cell Viability Assay kit (Promega, Cat #G7572), 96-well black-wall clear flat-bottom plate (Corning®, Cat #3603).
(§3) 1. Cells in the logarithmic growth phase were harvested and counted with a […]. Cell viability was detected by a trypan blue exclusion method, ensuring that cell viability was 90% or more; 2. Cell concentration was adjusted to about 3000 cells/well; 90 μl of cell suspension was added to each well of the 96-well plate; 3. The cells in the 96-well plate were incubated overnight under the condition of 37° C., 5% CO2, and 95% humidity.
(§4) 1. A series of compound solutions were formulated by 3.16-fold serial dilution starting from a concentration of 10 μM, resulting in 9 concentrations. 10 μL of the compound solutions were added in each well of the 96-well plate seeded with cells in triplicate for each compound concentration; 2. The cells in the 96-well plate added with compounds were further incubated under the condition of 37° C., 5% CO2, and 95% humidity for 72 hrs, and then CTG analysis was carried out.
(§5) 1. CTG reagent was thawed, and the cell plate was equilibrated at room temperature for 30 minutes; 2. An equal volume […] of CTG solution was added to each well; 3. The cell plate was shaken on an orbital shaker for 5 minutes to lyse the cells; 4. The cell plate was placed at RT for 20 minutes to stabilize the luminescence signal; 5. Luminescence value was read.
(§6) Data were Analyzed by GraphPad Prism 5.0 Software, and Fitted by Nonlinear S-Curve Regression to obtain a dose-response curve, from which IC50 values were calculated.
(§7) Cell survival rate (%)=(luminescence value of drug to be tested−luminescence value of culture medium control)/(luminescence value of cell control−luminescence value of culture medium control)×100%.
(In ATP-based viability assays light output follows the ATP content of the culture.)

Assay [2] deals with T1, Ba/F3 FLT3-ITD cells (Homo sapiens, UniProt P36888, cells depend on it, form not given).
T1 construct: Ba/F3 FLT3-ITD IC50 (nM); other: CellTiter-Glo, 72 hrs
T1 sequence (P36888 1-993): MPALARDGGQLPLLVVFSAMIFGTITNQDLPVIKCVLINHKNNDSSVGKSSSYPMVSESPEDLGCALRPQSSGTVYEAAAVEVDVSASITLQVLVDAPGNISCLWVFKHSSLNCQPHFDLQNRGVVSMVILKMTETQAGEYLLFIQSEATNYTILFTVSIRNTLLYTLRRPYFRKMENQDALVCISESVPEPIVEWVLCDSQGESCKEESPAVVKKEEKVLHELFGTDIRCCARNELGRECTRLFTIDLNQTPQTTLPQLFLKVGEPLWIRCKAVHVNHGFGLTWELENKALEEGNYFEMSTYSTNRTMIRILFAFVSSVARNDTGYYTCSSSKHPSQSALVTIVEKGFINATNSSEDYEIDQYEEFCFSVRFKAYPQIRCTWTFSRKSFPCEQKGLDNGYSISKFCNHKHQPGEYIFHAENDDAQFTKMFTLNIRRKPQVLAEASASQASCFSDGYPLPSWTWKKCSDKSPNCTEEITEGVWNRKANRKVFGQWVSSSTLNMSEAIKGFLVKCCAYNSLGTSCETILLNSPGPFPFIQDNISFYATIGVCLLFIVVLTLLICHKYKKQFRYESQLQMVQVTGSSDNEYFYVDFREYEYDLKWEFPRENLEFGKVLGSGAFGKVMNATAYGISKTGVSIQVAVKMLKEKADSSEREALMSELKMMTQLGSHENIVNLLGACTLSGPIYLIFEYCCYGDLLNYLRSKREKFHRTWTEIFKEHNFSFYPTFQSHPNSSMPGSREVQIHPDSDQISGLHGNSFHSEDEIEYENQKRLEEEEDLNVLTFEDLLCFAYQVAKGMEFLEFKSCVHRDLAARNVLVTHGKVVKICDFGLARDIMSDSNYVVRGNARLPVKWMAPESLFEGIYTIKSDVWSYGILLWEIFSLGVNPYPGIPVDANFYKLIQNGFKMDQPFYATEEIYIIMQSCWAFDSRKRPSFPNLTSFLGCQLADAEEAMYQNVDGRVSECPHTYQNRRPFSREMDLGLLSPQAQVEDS
As to the kind of experiment: Cytotoxicity assay (CellTiter-Glo), Ba/F3 FLT3-ITD. Conditions: CellTiter-Glo, 72 hrs; read-out: Ba/F3 FLT3-ITD IC50. The method, then:
as §1, §2, §3, §4, §5, §6, §7

The subject of assay [3] is Ba/F3 KIF5B-RET^G810R cells. As to the kind of experiment: Cytotoxicity assay (CellTiter-Glo), Ba/F3 KIF5B-RET G810R. Conditions: ratio of Ba/F3 parental IC50 to Ba/F3 KIF5B-RET^G810R IC50. The method, then: as §1, §2, §3, §4, §5, §6, §7
The target of assay [4] is T2, Ba/F3 KIF5B-RET^G810R cells (Homo sapiens, UniProt P07949, G810R, cells depend on it).
T2 construct: Ba/F3 KIF5B-RET^G810R IC50 (nM); other: CellTiter-Glo, 72 hrs; fused on or other part: P33176 (Kinesin-1 heavy chain)
The assay is described as above. Conditions: CellTiter-Glo, 72 hrs; read-out: Ba/F3 KIF5B-RET^G810R IC50. The method, then: as §1, §2, §3, §4, §5, §6, §7

Assay [5] addresses T3, Ba/F3 KIF5B-RET^V804M cells (Homo sapiens, UniProt P07949, V804M, cells depend on it).
T3 construct: Ba/F3 KIF5B-RET^V804M IC50 (nM); other: CellTiter-Glo, 72 hrs; fused on or other part: P33176 (Kinesin-1 heavy chain)
As to the kind of experiment: Cytotoxicity assay (CellTiter-Glo), Ba/F3 KIF5B-RET V804M. The conditions noted are these: CellTiter-Glo, 72 hrs; read-out: Ba/F3 KIF5B-RET^V804M IC50. The method, then: as §1, §2, §3, §4, §5, §6, §7

Assay [6] concerns Ba/F3 KIF5B-RET^V804M cells. Described as above. Conditions: ratio of Ba/F3 parental IC50 to Ba/F3 KIF5B-RET^V804M IC50. The method, then:
as §1, §2, §3, §4, §5, §6, §7

Assay [7] has as its target T4, Ba/F3 KIF5B-RET^V804L cells (Homo sapiens, UniProt P07949, V804L, cells depend on it).
T4 construct: Ba/F3 KIF5B-RET^V804L IC50 (nM); other: CellTiter-Glo, 72 hrs; fused on or other part: P33176 (Kinesin-1 heavy chain)
As to the kind of experiment: Cytotoxicity assay (CellTiter-Glo), Ba/F3 KIF5B-RET V804L. Conditions: CellTiter-Glo, 72 hrs; read-out: Ba/F3 KIF5B-RET^V804L IC50. On the procedure:
as §1, §2, §3, §4, §5, §6, §7

Assay [8] has as its system Ba/F3 KIF5B-RET^V804L cells. The description is as above. Conditions: ratio of Ba/F3 parental IC50 to Ba/F3 KIF5B-RET^V804L IC50. On the procedure:
as §1, §2, §3, §4, §5, §6, §7

T3 sequence (P07949 whole entry V804M, the tested form may be a part): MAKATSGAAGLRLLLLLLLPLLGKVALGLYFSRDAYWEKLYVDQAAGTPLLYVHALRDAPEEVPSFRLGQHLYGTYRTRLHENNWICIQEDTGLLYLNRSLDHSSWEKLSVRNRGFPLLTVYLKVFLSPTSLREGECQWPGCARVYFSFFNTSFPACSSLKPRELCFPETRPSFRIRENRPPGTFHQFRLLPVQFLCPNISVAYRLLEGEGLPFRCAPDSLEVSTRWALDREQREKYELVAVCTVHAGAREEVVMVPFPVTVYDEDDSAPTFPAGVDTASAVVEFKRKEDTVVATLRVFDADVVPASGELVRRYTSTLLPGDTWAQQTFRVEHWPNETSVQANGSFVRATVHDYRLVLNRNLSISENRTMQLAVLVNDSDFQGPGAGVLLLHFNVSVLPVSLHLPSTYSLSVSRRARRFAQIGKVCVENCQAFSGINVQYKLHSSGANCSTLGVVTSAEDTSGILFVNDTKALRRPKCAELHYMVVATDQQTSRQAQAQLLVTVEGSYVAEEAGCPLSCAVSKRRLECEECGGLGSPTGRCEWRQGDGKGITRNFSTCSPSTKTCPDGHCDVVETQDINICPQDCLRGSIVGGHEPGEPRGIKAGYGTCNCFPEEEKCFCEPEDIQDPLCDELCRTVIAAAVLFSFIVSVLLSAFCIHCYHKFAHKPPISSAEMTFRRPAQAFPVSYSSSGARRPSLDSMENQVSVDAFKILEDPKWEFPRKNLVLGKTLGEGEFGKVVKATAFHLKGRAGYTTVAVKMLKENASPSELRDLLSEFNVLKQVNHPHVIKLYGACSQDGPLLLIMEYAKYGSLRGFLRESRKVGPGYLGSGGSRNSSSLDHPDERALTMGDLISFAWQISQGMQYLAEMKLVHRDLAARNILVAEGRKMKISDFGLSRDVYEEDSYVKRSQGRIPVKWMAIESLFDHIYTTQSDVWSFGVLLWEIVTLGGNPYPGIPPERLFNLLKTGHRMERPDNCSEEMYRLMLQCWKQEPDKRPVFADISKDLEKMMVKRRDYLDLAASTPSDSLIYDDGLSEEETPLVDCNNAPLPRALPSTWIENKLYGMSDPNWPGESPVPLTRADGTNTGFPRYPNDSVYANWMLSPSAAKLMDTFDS
T2 sequence (P07949 whole entry G810R, the tested form may be a part): as the sequence (P07949 whole entry V804M, the tested form may be a part) above, with M804V, G810R counted along it
T4 sequence (P07949 whole entry V804L, the tested form may be a part): as the sequence (P07949 whole entry V804M, the tested form may be a part) above, with M804L counted along it

For `CC(C)n1nc(-c2ccc(CC(=O)Nc3cc(C(C)(C)C(F)(F)F)on3)c(F)c2)c2c(N)ncnc21` [Compound T-6, 2-(4-(4-amino-1-isopropyl-1H-pyrazolo[3,4-d]pyrimidin-3-yl)-2-fluorophenyl)-N-(5-(1,1,1-trifluoro-2-methylprop-2-yl)isoxazol-3-yl)acetamide], in the assay on Ba/F3 FLT3-ITD cells [1], the “Ba/F3 FLT3-ITD Selectivity on parental generation” value (“Ba/F3 FLT3-ITD Selectivity” for short) came to 5238.7. Moreover, the GI50 was 0.4 nM at Ba/F3 FLT3-ITD cells [2], 2.92 nM in assay [4], 9.9 nM in assay [5] and 5.8 nM in assay [7]. For the same compound, the “Ba/F3 KIF5B-RET^G810R Selectivity on parental generation” value (“Ba/F3 KIF5B-RET^G810R Selectivity” for short) in assay [3] came to 717.6. In assay [6], the “Ba/F3 KIF5B-RET^V804M Selectivity on parental generation” value (“Ba/F3 KIF5B-RET^V804M Selectivity” below) is recorded as 211.7. Also, the “Ba/F3 KIF5B-RET^V804L Selectivity on parental generation” value (shortened to “Ba/F3 KIF5B-RET^V804L Selectivity”) in assay [8] was determined as 361.3.

For the compound `CC(C)n1nc(-c2ccc(CC(=O)Nc3cc(C(C)(C)C(F)(F)F)on3)cn2)c2c(N)ncnc21` [Compound T-7, 2-(6-(4-amino-1-isopropyl-1H-pyrazolo[3,4-d]pyrimidin-3-yl)pyridin-3-yl)-N-(5-(1,1,1-trifluoro-2-methylprop-2-yl)isoxazol-3-yl)acetamide], the “Ba/F3 FLT3-ITD Selectivity” value in the assay with Ba/F3 FLT3-ITD cells [1] was found to be 3280.6. The GI50 came to 0.1 nM at Ba/F3 FLT3-ITD cells [2], 6.92 nM in assay [4], 3.42 nM in assay [5] and 55.7 nM in assay [7]. For the same compound, the “Ba/F3 KIF5B-RET^G810R Selectivity” value in assay [3] came to 47.4. The “Ba/F3 KIF5B-RET^V804M Selectivity” value in assay [6] is 95.9. Further, the “Ba/F3 KIF5B-RET^V804L Selectivity” value in assay [8] is 5.9.

With `CC(C)n1nc(-c2ccc(CC(=O)Nc3cc(C(C)(C)C(F)(F)F)no3)cc2)c2c(N)ncnc21` [Compound T-8, 2-(4-(4-amino-1-isopropyl-1H-pyrazolo[3,4-d]pyrimidin-3-yl)phenyl)-N-(3-(1,1,1-trifluoro-2-methylprop-2-yl)isoxazol-5-yl)acetamide], in the assay with Ba/F3 FLT3-ITD cells [1], the “Ba/F3 FLT3-ITD Selectivity” value is listed as 14708. The GI50 at Ba/F3 FLT3-ITD cells [2] amounted to 0.25 nM; in assay [4], 2.39 nM; in assay [5], 3.6 nM; in assay [7], 1.53 nM. Also, in assay [3], the “Ba/F3 KIF5B-RET^G810R Selectivity” value turned out to be 1538.5. Further, in assay [6], the “Ba/F3 KIF5B-RET^V804M Selectivity” value is recorded as 1021.4. Besides, in assay [8], the “Ba/F3 KIF5B-RET^V804L Selectivity” value came out at 2403.3.

With `CC(C)n1nc(-c2ccc(CC(=O)Nc3cc(C(C)(C)C(F)(F)F)no3)cn2)c2c(N)ncnc21` [Compound T-9, 2-(6-(4-amino-1-isopropyl-1H-pyrazolo[3,4-d]pyrimidin-3-yl)pyridin-3-yl)-N-(3-(1,1,1-trifluoro-2-methylprop-2-yl)isoxazol-5-yl)acetamide], in the assay on Ba/F3 FLT3-ITD cells [1], the “Ba/F3 FLT3-ITD Selectivity” value came out at 750.1. The GI50 at Ba/F3 FLT3-ITD cells [2] turned out to be 5.49 nM; in assay [4], 47.7 nM; in assay [5] it was 29.9 nM; in assay [7] it was 49.3 nM. Also, in assay [3], the “Ba/F3 KIF5B-RET^G810R Selectivity” value turned out to be 86.3. Also, the “Ba/F3 KIF5B-RET^V804M Selectivity” value in assay [6] came out at 137.7. The “Ba/F3 KIF5B-RET^V804L Selectivity” value in assay [8] is recorded as 83.5.

Regarding `CC(C)c1nc(-c2ccc(CC(=O)Nc3cc(C(C)(C)C(F)(F)F)on3)cc2)c2c(N)ncnn12` [Compound T-10, 2-(4-(4-amino-7-isopropylimidazo[5,1-f][1,2,4]triazin-5-yl)phenyl)-N-(5-(1,1,1-trifluoro-2-methylprop-2-yl)isoxazol-3-yl)acetamide], the “Ba/F3 FLT3-ITD Selectivity” value in the assay on Ba/F3 FLT3-ITD cells [1] is reported as 7006.3. In addition, the GI50 at Ba/F3 FLT3-ITD cells [2] was determined as 0.32 nM; in assay [4], 2.78 nM; in assay [5], 11.7 nM; in assay [7], 18.4 nM. The “Ba/F3 KIF5B-RET^G810R Selectivity” value in assay [3] stood at 806.5. Besides, the “Ba/F3 KIF5B-RET^V804M Selectivity” value in assay [6] is given as 191.6. Further, the “Ba/F3 KIF5B-RET^V804L Selectivity” value in assay [8] was determined as 121.8.
